Assay results from publication PMC12189828, “Substitution of Proline Residues by 4-Fluoro-L-Proline Affects the Mechanism of the Proline-Rich Antimicrobial Peptide Api137” (Antibiotics, 2025).
Where a SMILES comes first, the peptide text is derived from it. The star is where a group is joined. Orn(α-tetramethylguanidino) = CN(C)C(=N[C@@H](CCCN)C(=O)*)N(C)C

Tests used:
[1] = tested on: E. coli RN31; assay: Growth inhibition of E. coli RN31 during 90 min exponential growth phase; type: cell-based, Escherichia coli; conditions: E. coli RN31, 33% TSB, peptide 8 µg/mL, 90 min, OD600; two biological replicates (n = 2)
[2] = target: 70S ribosomes isolated from E. coli BW25113 (Escherichia coli, UniProt P60723+P61175); assay: Fluorescence polarization, competition with cf-Api137 for 70S ribosome binding (Ki); conditions: crude 70S ribosome extract, fluorescence polarization, 28 °C, 90 min + 90 min; two independent experiments with two replicates each (n = 4); Table 2
Procedure: E. coli BW25113 were cultivated in LB medium and harvested by centrifugation (5000× g, 15 min, 4 °C) at an OD600 of 3–4. Cell pellets were washed in ribosome preparation buffer (20 mmol/L HEPES-KOH, 6 mmol/L MgCl2, 30 mmol/L NH4Cl, pH 7.6, 4 °C), centrifuged (4100× g, 30 min, 4 °C), and resuspended in ribosome preparation buffer (0.5 g/L) containing freshly added 2-mercaptoethanol (4 mmol/L) and lysozyme. Cells were incubated on ice for 30 min and disrupted in six cycles using a FastPrep-24^TM 5G instrument (MP Biomedicals, Eschwege, Germany) with the BigPrep 50 mL setting (40 s, 4.0 m/s), interrupted by one minute of incubation on ice between the cycles. After a centrifugation step (1620× g, 5 min, 4 °C), DNase I (5 U/mL) was added to the supernatant and incubated for 1 h on ice. Cell debris was removed by centrifugation at 16,000× g (30 min, 4 °C) and twice at 32,000× g (60 min, 4 °C). Crude ribosomes were obtained by centrifugation at 165,000× g (17 h, 4 °C). […]
Inhibition constants (Ki) were measured for the 70S ribosome extract using cf-labeled and unlabeled peptides in ribosome preparation buffer. […] Fluorescence polarization was determined on a PARADIGM^TM microplate reader in the top reading position (λex = 485 nm, λem = 535 nm). […] Ki values were calculated as described by Mathias and Jung.

[3] = tested on: 50S subunit assembly / 70S ribosome in E. coli RN31; assay: Ribosome profile analysis (RPA), sucrose gradient of E. coli RN31 lysate; type: cell-based, Escherichia coli; conditions: 90 min
[4] = tested on: eukaryotic cell lines; conditions: cited from earlier work
[5] = tested on: mice; conditions: cited from earlier work

CC[C@H](C)[C@H](NC(=O)[C@H](Cc1ccc(O)cc1)NC(=O)[C@@H](NC(=O)[C@@H]1CCCN1C(=O)[C@H](CCCNC(=N)N)NC(=O)[C@H](CC(N)=O)NC(=O)[C@H](CC(N)=O)NC(=O)[C@H](CCCN)N=C(N(C)C)N(C)C)C(C)C)C(=O)N1CCC[C@H]1C(=O)N[C@@H](CCCNC(=N)N)C(=O)N1CCC[C@H]1C(=O)N[C@@H](CCCNC(=N)N)C(=O)N1CCC[C@H]1C(=O)N1CCC[C@H]1C(=O)N[C@@H](Cc1c[nH]cn1)C(=O)N1CCC[C@H]1C(=O)N[C@@H](CCCNC(=N)N)C(=O)N[C@@H](CC(C)C)C(=O)O [Api137] ({Orn(α-tetramethylguanidino)}-NNRPVYIPRPRPPHPRL-OH; N-terminus and C-terminus assumed)
reduction of bacterial growth vs untreated control [1]: 70%
Ki [2]: 2.6 ± 0.2 nM
RPA [pre-50S formation] ([3]; E. coli RN31, 33% TSB, peptide 8 µg/mL, 5–25% sucrose gradient, n = 2 (Api137 n = 7)): yes
70S peak (area) relative to untreated control ([3]; E. coli RN31, peptide 8 µg/mL, sucrose gradient profile): ~ 50%
cytotoxicity to eukaryotic cell lines [4]: virtually non-toxic
tolerability in mice [5]: well tolerated
